In US6964958B2, “Method of simultaneously treating sensory auditory gating deficit and associated psychosis in schizophrenia and bipolar disorder patients with mania” (priority 2001, dated 2005):

Experiments:
[1] = test system: heterozygous reeler mice (HRM); test: Prepulse inhibition of startle (PPI) in heterozygous reeler mice; format: in vivo, mouse; conditions: for auditory PPI deficit in HRM: heterozygous reeler mice, subcutaneous, imidazenil 0.3, 0.6 mg/kg, 115 db startle, 75 or 80 db prepulse
From the text: (§1) The startle apparatus (SR-Lab, San Diego Instruments) consisted of a Plexiglas cylinder resting on a Plexiglas frame within a ventilated soundproof enclosure. Acoustic noise bursts were presented by. speaker 24 cm above the animal. and a piezo-electric device transduced any consequent motion (flinch) within the cylinder. Two stimulus trial types 1) 115 db startle stimulus only; or 2) 115 db stimulus preceded by a 75 or 80 db prepulse 100 msec before startle simulut onset were randomly presented with a mean intertrial interval of 20 sec. Stimuli were 30 msec in duration and were presented over a constant 65 db white noise background also present during a 5-min adaptation period.
(§2) Mean peak amplitude of the flinch response within a 200 msec window following presentation of the 115 db stimulus was calculated separately for each type of startle trial. Ratios reflecting the amount of inhibition due to the prepulse were calculated by dividing the difference between mean amplitude for startle and prepulse trials by the mean for the startle trials. PPI data are commonly presented in this ratio form to control for overall level of the startle reflex itself.
Imidazenil or alprazolam was dissolved in DMSO, combined with oil, and injected subcutaneously at a volume of 0.1 ml/10 gm of body weight. The amount of DMSO was approximately 1% of total volume. Vehicle was prepared similarly and vehicle or drug was administered in counterbalanced order using a within-subject design. Following drug administration, the mouse was placed in an isolated cage for 10-15 min before being placed in the startle apparatus. Animals were tested between 11:00 hr and 15:00 hr.

wild-type mice (WTM) = test: Prepulse inhibition of startle (PPI) in wild-type mice; format: in vivo, mouse; conditions: subcutaneous, 115 db startle, 75 or 80 db prepulse
From the text: as §1, §2
Imidazenil or alprazolam was dissolved in DMSO, combined with oil, and injected subcutaneously at a volume of 0.1 ml/10 gm of body weight. The amount of DMSO was approximately 1% of total volume. […]

[2] = FIG. 1 dose-response comparison; cited from earlier work
[3] = test system: benzodiazepines binding sites; conditions: cited from earlier work
GABAA receptors = conditions: cited from earlier work
rats = conditions: doses up to 60-fold greater than doses producing anxiolytic and anticonvulsant actions; cited from earlier work
[4] = in nonhuman primates; cited from earlier work
patas monkeys = conditions: cited from earlier work

Row | Structure (SMILES) | auditory PPI deficit in HRM [1] | PPI of WTM (wild-type mice (WTM)) | sedation, amnesia, tolerance and dependence liability relative to doses with anxiolytic and anticonvulsant (therapeutic) actions [2] | overall startle level (sedative effect) ([1]; doses of imidazenil (0.3, 0.6 mg/kg) that correct the PPI deficit in HRM) | affinity for benzodiazepines binding sites [3] | action on GABAA alpha1 subunit (GABAA receptors; GABAA receptors containing alpha1 subunit) | efficacy at GABAA receptor subtypes (GABAA receptors; at least eight subtypes of GABAA receptors tested) | intensity of GABA-gated Cl- currents (GABAA receptors) | antagonism of sedative and amnestic actions of alprazolam (rats) | T 1/2 (clearance rate) [4] [h] | antagonism of sedative and amnestic actions of alprazolam (patas monkeys; monkeys, doses up to 60-fold greater than doses producing anxiolytic and anticonvulsant actions) | tolerance to the effects during treatment (patas monkeys; patas monkeys, seventeen day treatment)
1 | Cc1nnc2n1-c1ccc(Cl)cc1C(c1ccccc1)=NC2 [alprazolam, 8chloro-1-methyl-6-phenyl-4-[1,2,4]triazolo[4,3a][1-4]benzodiazepine, reference compound] | failed to revert the PPI deficit in HRM | decreased PPI in WTM | appear with doses that are very close to those that cause anxiolytic and anticonvulsant actions | – | – | – | – | – | – | – | – | –
2 | NC(=O)c1ncn2c1CN=C(c1ccccc1Br)c1cc(F)ccc1-2 [imidazenil, 6-(2 bromophenyl)-8-fluoro-4H-imidazo[1,5a][1,4]benzodiazepine-3-carboxamide] | corrected the auditory PPI deficit in HRM | no primary effects on the PPI of WTM | virtually undetectable | fail to change the overall startle level | high affinity | does not act on GABAA α1 subunit | partial agonist | never maximizes the intensity of GABA-gated Cl^− currents | antagonizes the sedative and amnestic actions of alprazolam | > 6 | antagonizes the sedative and amnestic actions of alprazolam | no tolerance
